In experiment [1] the test system is Apt-14t (AuNP assay) (DNA, aptamer) ACGGCCAGTGGGTGGGGCGGGTGGCGGCCGGTTGTTTCTATGC
In words: AuNP colorimetry (A650/A520). The following applies: 100 mM NaCl, 5 mM KCl, 2 mM MgCl2, 1 mM CaCl2; binding buffer pH 7.6, 37 °C; 200 nM aptamer; NaCl added after binding to aggregate AuNPs.

In experiment [2] the test system is Apt-14 (DNA, aptamer) GCTGTGTGACTCCTGCAAACGGCCAGTGGGTGGGGCGGGTGGCGGCCGGTTGTTTCTATGCGCAGCTGTATCTTGTCTCC
In words: graphene oxide fluorescence recovery (FAM). The following applies: 100 mM NaCl, 5 mM KCl, 2 mM MgCl2, 1 mM CaCl2; 20 mM Tris-HCl pH 7.6 (binding buffer); aptamer titrated at fixed FF (1 M [sic]); GO:ssDNA 20:1.

The test system of experiment [3] is Apt-15 (DNA, aptamer) GCTGTGTGACTCCTGCAACACGAACGTTTCCGTGGGTGGGTGGGTGGCCAAATGTCGCGTGGCAGCTGTATCTTGTCTCC
Briefly: graphene oxide fluorescence recovery (FAM). The following applies: 100 mM NaCl, 5 mM KCl, 2 mM MgCl2, 1 mM CaCl2; 20 mM Tris-HCl pH 7.6 (binding buffer); aptamer titrated at fixed FF (1 M [sic]).

Experiment [4] has as its system Apt-14t (DNA, aptamer) ACGGCCAGTGGGTGGGGCGGGTGGCGGCCGGTTGTTTCTATGC
Briefly: graphene oxide fluorescence recovery (FAM). The following applies: 100 mM NaCl, 5 mM KCl, 2 mM MgCl2, 1 mM CaCl2; for binding: binding buffer pH 7.6, 100 nM aptamer, 1 µM compound.

Experiment [5] has as its system Apt-20 (DNA, aptamer) GCTGTGTGACTCCTGCAAGCGCAATGATGTGTTGTGGGTGGGCGGGTGGCTCATTGCGTGGGCAGCTGTATCTTGTCTCC
Briefly: graphene oxide fluorescence recovery (FAM). The following applies: 100 mM NaCl, 5 mM KCl, 2 mM MgCl2, 1 mM CaCl2; 20 mM Tris-HCl pH 7.6 (binding buffer); aptamer titrated at fixed FF (1 M [sic]).

The subject of experiment [6] is Apt-1 (DNA, aptamer) GCTGTGTGACTCCTGCAAGGTCCTCGGGTGGTGGGTGGGCTCGGGTTTTTGTTCACTCTCCGCAGCTGTATCTTGTCTCC
In words: graphene oxide fluorescence recovery (FAM). The following applies: 100 mM NaCl, 5 mM KCl, 2 mM MgCl2, 1 mM CaCl2; 20 mM Tris-HCl pH 7.6 (binding buffer); aptamer titrated at fixed FF (1 M [sic]).

Consider four compounds from publication PMC9496042 (2022).

Usually Kd stands for the constant that tells how readily two partners part at equilibrium. Turning to `CS(=O)(=O)c1ccc([C@@H](O)[C@@H](CF)NC(=O)C(Cl)Cl)cc1`, the binding entry in experiment [1] is recorded as “yes”. Also, the Kd in experiment [2] turned out to be 0.03465 ± 0.0057 µM; in experiment [3], 0.05741 ± 0.018 µM; in experiment [4] (20 mM Tris-HCl pH 7.6 (binding buffer), aptamer titrated 0-200 nM at fixed FF (1 M [sic])), 0.00466 ± 0.00075 µM; in experiment [5], 0.05944 ± 0.0169 µM; in experiment [6], 0.0709 ± 0.02236 µM.
Regarding `CS(=O)(=O)c1ccc([C@@H](O)[C@@H](CO)NC(=O)C(Cl)Cl)cc1`, the binding result in experiment [4] is recorded as “weak”.
On to `CS(=O)(=O)c1ccc([C@@H](O)[C@H](N)CF)cc1`, for which the binding entry in experiment [1] and in experiment [4] was “yes” in each case.
Turning to `O=C(N[C@H](CO)[C@H](O)c1ccc([N+](=O)[O-])cc1)C(Cl)Cl`, in experiment [4], the binding entry was “weak”.
